Experiments:
[1] = test system: free esterases in a stool sample; assay: Coloration at the point of deposit of the stool on Salmonella detection medium (Magenta C8); format: biochemical; design: key to Deposit coloration: 0=no coloration; 0.5=trace of coloration; 1=weak coloration; 2=strong coloration; details: for Aspecific enzymatic reactions due to the presence of free enzymes: stools, Salmonella detection medium, summary in words
Method: (§1) Preparation of the detection medium: A volume of 250 ml of detection medium is prepared from a powdered medium having the following composition:
(§2) Melting is carried out at 100° C., and the medium is autoclaved at 121° C. for 15 minutes. The additives are then added to the medium: Magenta C8 (500 mg/l; B-7102, BIOSYNTH, Staad, Switzerland); X-glucoside (75 mg/l; B-7250, BIOSYNTH, Staad, Switzerland); cefsulodine (10 mg/l; C 4786, Sigma, St Quentin Fallavier, France) and various concentrations of the inhibitor O,O-diethyl p-nitrophenyl phosphate (Paraoxon® ethyl; CAS No. 311-45-5; 36186, Riedel-de Haën, St Quentin Fallavier, France; 0; 1; 5 or 10 mg/l).
(§3) The various detection media thus obtained are then poured into Petri dishes.
(§4) Seeding of Salmonella bacteria: 10 μl of stools are deposited onto a Petri dish, this stool suspension is mixed or not mixed with 10 μl of a suspension of Salmonella (0.5 McF) and isolated as 3 dials on a Petri dish. Various […] and various Salmonella strains originating from the applicant's collection are used according to this protocol. The Petri dishes are incubated at 37° C. for 24 hours. The appearance of a coloration at the point of deposit of the stool (“deposit” column) and at the Salmonella colony (“colony” column) is read according to a semi-quantitative scale: • 0=no coloration • 0.5=trace of coloration • 1=weak coloration • 2=strong coloration The results obtained are given in Table 1.
as §2, with “O,O-dimethyl” for “O,O-diethyl”, “methyl;” for “ethyl;”, “950-35-6;” for “311-45-5; 36186,”, “5, 10, 25” for “0; 1; 5 or 10”
(§5) Seeding of Salmonella bacteria: The Petri dishes are inoculated, incubated and read as in Example 1.
(§6) Preparation of the detection medium: 250 ml of the medium of Example 1, in which the O,O-diethyl p-nitrophenyl phosphate is replaced with various concentrations of O,O-di-(2-chloroethyl)-O-(3-chloro-4-methylcoumarin-7-yl)phosphate (Haloxon®; CAS No. 321-55-1; R276995, Sigma, St Quentin Fallavier, France; 0; 1; 10; 100 or 1000 mg/l), are prepared according to the method of Example 1.
(§7) The various selection media thus obtained are then poured into Petri dishes.

free esterases in stools [2] = assay: Coloration at the point of deposit of the stool on Candida detection medium; format: biochemical; details: summary in words
Method: as §1
(§8) Melting is carried out at 100° C., and the medium is autoclaved at 121° C. for 15 minutes. The additives are then added to the medium: Magenta C8 (500 mg/l; B-7102, BIOSYNTH, Staad, Switzerland); X-glucoside (75 mg/l; B-7250, BIOSYNTH, Staad, Switzerland); cefsulodine (10 mg/l; C 4786, Sigma, St Quentin Fallavier, France), and also the esterase inhibitor: • ? O,O-diethyl p-nitrophenyl phosphate: 5 mg/l • ? O,O-dimethyl p-nitrophenyl phosphate: 25 mg/l or • ? O,O-di-(2-chloroethyl)-O-(3-chloro-4-methylcoumarin-7-yl)phosphate: 75 mg/l
as §7
(§9) Seeding of yeast of the Candida genus: 10 μl of stools are deposited onto a Petri dish, and this stool suspension is mixed or not mixed with 10 μl of a suspension of Candida and isolated as 3 dials on a Petri dish. Various stools and various strains of Candida genus originating from the applicant's collection are used according to this protocol. The Petri dishes are incubated at 37° C. for 24 hours.
(§10) The appearance of a coloration at the point of deposit of the stool and in the Candida colonies is read according to a semi-quantitative scale: • 0=absence of coloration • 0.5=trace coloration • 1=weak coloration • 2=strong coloration.

Salmonella Enteritidis = assay: Coloration of Salmonella Enteritidis colonies on detection medium; format: cell-based; design: key: 0=no coloration; 0.5=trace of coloration; 1=weak coloration; 2=strong coloration
Method: as §1, §2, §3, §4
as §2, with “O,O-dimethyl” for “O,O-diethyl”, “methyl;” for “ethyl;”, “950-35-6;” for “311-45-5; 36186,”, “5, 10, 25” for “0; 1; 5 or 10”
as §5, §6, §7

Candida albicans = assay: Coloration of Candida albicans colonies on detection medium; format: cell-based; design: key: 0=absence of coloration; 0.5=trace coloration; 1=weak coloration; 2=strong coloration; details: stool B
Method: as §1, §8, §7, §9, §10

[3] = Colonies column read for stool without added strain, Salmonella detection medium; design: key: 0=no coloration; 0.5=trace of coloration; 1=weak coloration; 2=strong coloration; details: no strain
Method: as §1, §2, §3, §4
as §2, with “O,O-dimethyl” for “O,O-diethyl”, “methyl;” for “ethyl;”, “950-35-6;” for “311-45-5; 36186,”, “5, 10, 25” for “0; 1; 5 or 10”
as §5, §6, §7

free esterases in stools [4] = assay: Coloration at the point of deposit of the stool on Candida detection medium; format: biochemical; design: key: 0=no coloration; 0.5=trace of coloration; 1=weak coloration; 2=strong coloration; details: Table 4
Method: as §1, §8, §7, §9, §10

Cc1c(Cl)c(=O)oc2cc(OP(=O)(OCCCl)OCCCl)ccc12 [O,O-di-(2-chloroethyl)-O-(3-chloro-4-methylcoumarin-7-yl) phosphate]
Deposit coloration ([1]; Table 3, 1 mg/l, stool A, Salmonella Enteritidis): 1
Deposit coloration ([1]; Table 3, 1 mg/l, stool A, Salmonella Paratyphi A): 1
Deposit coloration ([1]; Table 3, 1 mg/l, stool A, Salmonella Typhi): 1
Deposit coloration ([1]; Table 3, 1 mg/l, stool A, no strain): 1
Deposit coloration ([1]; Table 3, 1 mg/l, stool B, Salmonella Enteritidis): 0
Deposit coloration ([1]; Table 3, 1 mg/l, stool B, Salmonella Paratyphi A): 0
Deposit coloration ([1]; Table 3, 1 mg/l, stool B, Salmonella Typhi): 0
Deposit coloration ([1]; Table 3, 1 mg/l, stool B, no strain): 1
Deposit coloration ([1]; Table 3, 10 mg/l, stool A, Salmonella Enteritidis): 1
Deposit coloration ([1]; Table 3, 10 mg/l, stool A, Salmonella Paratyphi A): 1
Deposit coloration ([1]; Table 3, 10 mg/l, stool A, Salmonella Typhi): 1
Deposit coloration ([1]; Table 3, 10 mg/l, stool A, no strain): 1
Deposit coloration ([1]; Table 3, 10 mg/l, stool B, Salmonella Enteritidis): 0
Deposit coloration ([1]; Table 3, 10 mg/l, stool B, Salmonella Paratyphi A): 0
Deposit coloration ([1]; Table 3, 10 mg/l, stool B, Salmonella Typhi): 0
Deposit coloration ([1]; Table 3, 10 mg/l, stool B, no strain): 0.5
Deposit coloration ([1]; Table 3, 100 mg/l, stool A, Salmonella Enteritidis): 0.5
Deposit coloration ([1]; Table 3, 100 mg/l, stool A, Salmonella Paratyphi A): 0.5
Deposit coloration ([1]; Table 3, 100 mg/l, stool A, Salmonella Typhi): 0.5
Deposit coloration ([1]; Table 3, 100 mg/l, stool A, no strain): 0.5
Deposit coloration ([1]; Table 3, 100 mg/l, stool B, Salmonella Enteritidis): 0
Deposit coloration ([1]; Table 3, 100 mg/l, stool B, Salmonella Paratyphi A): 0
Deposit coloration ([1]; Table 3, 100 mg/l, stool B, Salmonella Typhi): 0
Deposit coloration ([1]; Table 3, 100 mg/l, stool B, no strain): 0
Deposit coloration ([1]; Table 3, 1000 mg/l, stool A, Salmonella Enteritidis): 0
Deposit coloration ([1]; Table 3, 1000 mg/l, stool A, Salmonella Paratyphi A): 0
Deposit coloration ([1]; Table 3, 1000 mg/l, stool A, Salmonella Typhi): 0
Deposit coloration ([1]; Table 3, 1000 mg/l, stool A, no strain): 0
Deposit coloration ([1]; Table 3, 1000 mg/l, stool B, Salmonella Enteritidis): 0
Deposit coloration ([1]; Table 3, 1000 mg/l, stool B, Salmonella Paratyphi A): 0
Deposit coloration ([1]; Table 3, 1000 mg/l, stool B, Salmonella Typhi): 0
Deposit coloration ([1]; Table 3, 1000 mg/l, stool B, no strain): 0
Aspecific enzymatic reactions due to the presence of free enzymes [1]: greatly inhibited
Aspecific enzymatic reactions due to the presence of free enzymes (free esterases in stools [2]): greatly inhibited
Colonies coloration (Salmonella Enteritidis; Table 3, 1 mg/l, stool A): 2
Colonies coloration (Salmonella Enteritidis; Table 3, 1 mg/l, stool B): 2
Colonies coloration (Salmonella Enteritidis; Table 3, 10 mg/l, stool A): 2
Colonies coloration (Salmonella Enteritidis; Table 3, 10 mg/l, stool B): 2
Colonies coloration (Salmonella Enteritidis; Table 3, 100 mg/l, stool A): 2
Colonies coloration (Salmonella Enteritidis; Table 3, 100 mg/l, stool B): 2
Colonies coloration (Salmonella Enteritidis; Table 3, 1000 mg/l, stool A): 2
Colonies coloration (Salmonella Enteritidis; Table 3, 1000 mg/l, stool B): 2
Colonies coloration (Candida albicans; Table 4, 75 mg/l): 0.5
Colonies coloration ([3]; Table 3, 1 mg/l, stool A): 0
Colonies coloration ([3]; Table 3, 1 mg/l, stool B): 0
Colonies coloration ([3]; Table 3, 10 mg/l, stool A): 0
Colonies coloration ([3]; Table 3, 10 mg/l, stool B): 0
Colonies coloration ([3]; Table 3, 100 mg/l, stool A): 0
Colonies coloration ([3]; Table 3, 100 mg/l, stool B): 0
Colonies coloration ([3]; Table 3, 1000 mg/l, stool A): 0
Colonies coloration ([3]; Table 3, 1000 mg/l, stool B): 0
Deposit coloration (free esterases in stools [4]; 75 mg/l, stool A, Candida albicans): 1
Deposit coloration (free esterases in stools [4]; 75 mg/l, stool A, Candida dubliniensis): 1
Deposit coloration (free esterases in stools [4]; 75 mg/l, stool A, Candida krusei): 1
Deposit coloration (free esterases in stools [4]; 75 mg/l, stool B, Candida albicans): 1
Deposit coloration (free esterases in stools [4]; 75 mg/l, stool B, Candida dubliniensis): 1
Deposit coloration (free esterases in stools [4]; 75 mg/l, stool B, Candida krusei): 1

CCOP(=O)(OCC)Oc1ccc([N+](=O)[O-])cc1 [O,O-diethyl p-nitrophenyl phosphate]
Deposit coloration ([1]; Table 1, 1 mg/l, stool A, Salmonella Enteritidis): 0.5
Deposit coloration ([1]; Table 1, 1 mg/l, stool A, Salmonella Paratyphi A): 0.5
Deposit coloration ([1]; Table 1, 1 mg/l, stool A, Salmonella Typhi): 0.5
Deposit coloration ([1]; Table 1, 1 mg/l, stool A, no strain): 0.5
Deposit coloration ([1]; Table 1, 1 mg/l, stool B, Salmonella Enteritidis): 0
Deposit coloration ([1]; Table 1, 1 mg/l, stool B, Salmonella Paratyphi A): 0
Deposit coloration ([1]; Table 1, 1 mg/l, stool B, Salmonella Typhi): 0
Deposit coloration ([1]; Table 1, 1 mg/l, stool B, no strain): 0
Deposit coloration ([1]; Table 1, 5 mg/l, stool A, Salmonella Enteritidis): 0
Deposit coloration ([1]; Table 1, 5 mg/l, stool A, Salmonella Paratyphi A): 0
Deposit coloration ([1]; Table 1, 5 mg/l, stool A, Salmonella Typhi): 0
Deposit coloration ([1]; Table 1, 5 mg/l, stool A, no strain): 0
Deposit coloration ([1]; Table 1, 5 mg/l, stool B, Salmonella Enteritidis): 0
Deposit coloration ([1]; Table 1, 5 mg/l, stool B, Salmonella Paratyphi A): 0
Deposit coloration ([1]; Table 1, 5 mg/l, stool B, Salmonella Typhi): 0
Deposit coloration ([1]; Table 1, 5 mg/l, stool B, no strain): 0
Deposit coloration ([1]; Table 1, 10 mg/l, stool A, Salmonella Enteritidis): 0
Deposit coloration ([1]; Table 1, 10 mg/l, stool A, Salmonella Paratyphi A): 0
Deposit coloration ([1]; Table 1, 10 mg/l, stool A, Salmonella Typhi): 0
Deposit coloration ([1]; Table 1, 10 mg/l, stool A, no strain): 0
Deposit coloration ([1]; Table 1, 10 mg/l, stool B, Salmonella Enteritidis): 0
Deposit coloration ([1]; Table 1, 10 mg/l, stool B, Salmonella Paratyphi A): 0
Deposit coloration ([1]; Table 1, 10 mg/l, stool B, Salmonella Typhi): 0
Deposit coloration ([1]; Table 1, 10 mg/l, stool B, no strain): 0
Aspecific enzymatic reactions due to the presence of free enzymes [1]: greatly inhibited
Aspecific enzymatic reactions due to the presence of free enzymes (free esterases in stools [2]): greatly inhibited
Colonies coloration (Salmonella Enteritidis; Table 1, 1 mg/l, stool A): 2
Colonies coloration (Salmonella Enteritidis; Table 1, 1 mg/l, stool B): 2
Colonies coloration (Salmonella Enteritidis; Table 1, 5 mg/l, stool A): 2
Colonies coloration (Salmonella Enteritidis; Table 1, 5 mg/l, stool B): 2
Colonies coloration (Salmonella Enteritidis; Table 1, 10 mg/l, stool A): 2
Colonies coloration (Salmonella Enteritidis; Table 1, 10 mg/l, stool B): 2
Colonies coloration (Candida albicans; Table 4, 5 mg/l): 0.5
Colonies coloration ([3]; Table 1, 1 mg/l, stool A): 0
Colonies coloration ([3]; Table 1, 1 mg/l, stool B): 0
Colonies coloration ([3]; Table 1, 5 mg/l, stool A): 0
Colonies coloration ([3]; Table 1, 5 mg/l, stool B): 0
Colonies coloration ([3]; Table 1, 10 mg/l, stool A): 0
Colonies coloration ([3]; Table 1, 10 mg/l, stool B): 0
Deposit coloration (free esterases in stools [4]; 5 mg/l, stool A, Candida albicans): 1
Deposit coloration (free esterases in stools [4]; 5 mg/l, stool A, Candida dubliniensis): 1
Deposit coloration (free esterases in stools [4]; 5 mg/l, stool A, Candida krusei): 1
Deposit coloration (free esterases in stools [4]; 5 mg/l, stool B, Candida albicans): 1
Deposit coloration (free esterases in stools [4]; 5 mg/l, stool B, Candida dubliniensis): 1
Deposit coloration (free esterases in stools [4]; 5 mg/l, stool B, Candida krusei): 1
